According to US10663471B2, “Fluorescent sensors of peroxynitrite targeted to the endoplasmic reticulum” (The University of Kansas, priority 2018, dated 2020):

Legend:
RAW 264.7 macrophages [1] = test: subcellular localization by confocal laser scanning microscopy; format: cell-based; details: for ratio of cytosolic (ER-associated) to nuclear fluorescence: 10 μM, 4 h, living RAW 264.7 macrophages
Source text: The pro-fluorophore Compounds 1-8 can cause fluorescence in living cells upon reacting with peroxynitrite. The ability of ER-targeted sensors to detect endogenous peroxynitrite during phagocytosis was further investigated by confocal laser scanning microscopy. […] The left panels of FIGS. 7A-7B show the DIC micrographs and the right panels show the confocal laser scanning micrographs. […] When the cells were additionally treated with DNP-modified amino tentagel beads (10 micron) bound to anti-DNP IgG, cellular green fluorescence is observed and localized to the endoplasmic reticulum. In FIG. 7B, the white arrows point at phagocytosed beads. The scale bar in FIG. 7B is 25 microns. The right panel of FIG. 7A is relatively blank (white instead of black), and then fluorescence is seen in the right panel of FIG. 7B, thereby showing that there is localization to the ER by the compounds of the present invention.
After correcting for differences in brightness, this interpretation was further supported by analysis of cells treated with Compounds 1-8 by flow cytometry.
Analysis of Subcellular Localization.
RAW264.7 macrophages were scraped to passage and diluted to 300,000 cells/mL in complete medium. These cells were plated in an ibiTreat-coated 8-well μ-Slide (ibidi, 300 μL of media per well) and incubated at 37° C. overnight. The next day, the wells were washed once with complete media before treatment with fluorescent probes. Fluorescent sensors in DMSO stock solutions were diluted into complete media and added to cells. ER-Tracker Blue-White DPX (ThermoFisher Scientific) was diluted in DMSO to 100 μM followed by 1:1000 dilution with complete media. Labeled tentagel beads were added to cells at 200,000 beads/mL. Cells were incubated for 4 h at 37° C. followed by imaging by confocal microscopy (without washing). Phagocytosed beads were identified by morphology such as compression of the nucleus around the bead and adjacent fluorescence of ER membranes. […] To quantify the ratio of cytosolic to nuclear fluorescence (FIG. 8), Leica LAS X 2.0.1 software was used to define regions of interest (ROI) within the cytosol, nucleus, and cell-free regions. Mean fluorescence per pixel was calculated using Leica LAS X 2.0.1 software and plotted with SD (N=20). ROI from cell-free regions were used to subtract background fluorescence for comparison.

[2] = photophysical properties: quantum yields relative to rhodamine 6G in n-octanol, molar extinction coefficients in DMSO; format: physicochemical
Source text: Optical spectroscopic properties of the pro-fluorophore Compound 3, as a representative probe, and the rhodol product (Compound 9), in n-octanol as a mimic of ER membranes, are shown in FIG. 2.
The fluorescence emission of Compounds 1-8 was quenched by up to 1800-fold (for Compound 3, Φ=0.0004) compared to Compound 9 (Φ=0.72). However, the brightness of these sensors, calculated as the product of their measured molar extinction coefficients and quantum yields, varied by up to 30-fold (See FIGS. 2A and 2B).

[3] = limit of detection of peroxynitrite by fluorescence spectroscopy; details: sensor 50 nM in PBS pH 7.4, 0.1% DMSO, 5 min, 23° C.
Protocol: (PBS, pH 7.4, 0.1% DMSO).
Determination of the Limit of Detection of Peroxynitrite by Compound 3.
The concentration of a stock solution of pure peroxynitrite was measured by absorbance spectroscopy and diluted with aq. NaOH (0.1 M) to provide additional stock solutions. […] The detection limit of Compound 3 was determined based on a reported method (Yu, F., Li, P., Wang, B., and Han, K. (2013) Reversible near-infrared fluorescent probe introducing tellurium to mimetic glutathione peroxidase for monitoring the redox cycles between peroxynitrite and glutathione in vivo, J. Am. Chem. Soc. 135, 7674-7680; Shortreed, M., Kopelman, R., Kuhn, M., and Hoyland, B. (1996) Fluorescent fiber-optic calcium sensor for physiological measurements, Anal. Chem. 68, 1414-1418). The fluorescence emission at 526 nm was normalized between the minimum intensity (0 nM peroxynitrite, Fmin) and the maximum intensity (500 nM peroxynitrite, Fmax) using the following equation: (F−Fmin)/(Fmax−Fmin). […]

[4] = sensor 50 nM, PBS pH 7.4, 5 min, 23° C.
Protocol: Maximal fluorescence emission was measured by fluorescence spectroscopy after treatment for 5 min at 23° C. (PBS, pH 7.4, 0.1% DMSO).
A normalized DMSO stock solution of Compound 3 in DMSO (50 μM) was diluted 1:1000 with PBS (pH 7.4) to yield a 50 nM solution (0.1% DMSO) in triplicate. RNS and ROS were generated as described below and diluted into the solution in volumes that changed the overall volume by 0.5% or less. These solutions were mixed, incubated at room temperature for 5 min, and transferred to a quartz cell for analysis by fluorescence spectroscopy.
The concentration of peroxynitrite was measured by absorbance spectroscopy (ε=1670 M^−1cm^−1 at 302 nm in aq. NaOH, 0.1 M). To provide stock solutions, peroxynitrite was diluted with NaOH (aq., 0.1 M). These solutions were diluted 1:1000 into solutions of Compound 3 for analysis. […] The concentration of ClO^− was verified by absorbance spectroscopy (ε=350 M^−1cm^−1 at 209 nm) in water.
Hydroxyl radical (.OH) was generated using the Fenton reaction (Jia, X., Chen, Q., Yang, Y., Tang, Y., Wang, R., Xu, Y., Zhu, W., and Qian, X. (2016) FRET-Based Mito-Specific Fluorescent Probe for Ratiometric Detection and Imaging of Endogenous Peroxynitrite: Dyad of Cy3 and Cy5, J. Am. Chem. Soc. 138, 10778-10781). […] The concentration of H2O2 was verified by absorbance spectroscopy (ε=43.6 M^−1cm^−1 at 240 nm) in water. […]

cells in culture = test: cytotoxicity in culture (FIG. 5); format: cell-based; details: 10 μM, 48 hours in culture
RAW 264.7 macrophages [5] = test: detection of peroxynitrite resulting from phagocytosis by flow cytometry; format: cell-based; details: for cellular association (cellular fluorescence per sensor brightness): FIG. 8C; for response of cellular fluorescence to SIN-1: SIN-1 50 μM, HPF 10 μM in HBSS, Fl-B 50 μM in DMEM
Source text: The ability of the pro-fluorophore Compounds 1-8 to generate cellular fluorescence was studied. The protocol included treating living RAW 264.7 macrophages with pro-fluorophore Compounds 1-8 and quantified cellular fluorescence by flow cytometry (FIGS. 6A-6B). To trigger phagocytosis and production of endogenous peroxynitrite, these cells were additionally treated with chemically-modified amino-tentagel beads. These beads were either covalently derivatized with the fluorophore Pacific Blue, to provide a less immunostimulatory control, or covalently conjugated with DNP and non-covalently bound to anti-DNP IgG, to promote bead phagocytosis as shown in FIG. 9. To provide a spectrally orthogonal marker, lysine residues of the antibody were conjugated to PB to allow labeled beads to be distinguished from cells by flow cytometry. […] Cells were treated (4 h) with sensor Compounds 1-8 (10 μM) and 10-micron amino-tentagel beads modified either with Pacific Blue-SE (Beads-PB) or 2,4-DNP-X-SE. To the DNP-modified beads was additionally added rabbit anti-DNP IgG (Beads/IgG), conjugated to Pacific Blue via lysines, to stimulate phagocytosis.
The ER-targeting pro-fluorophores were compared with non-ER-targeted sensors of peroxynitrite: hydroxyphenyl fluorescein (HPF) and fluorescein boronate (Fl-B). Since the fluorescence of HPF can be affected by serum proteins, cells were treated with this compound in Hank's balanced salt solution (HBSS). […] In FIG. 6B, the cells were treated with Compound 3 in DMEM media or HBSS and compared with treatment with hydroxyphenyl fluorescein (HPF, 10 μM in HBSS) and fluorescein boronate (Fl-B, 50 μM in DMEM). [SIN-1]=50 μM. [FeTMPyP]=50 μM.
Detection of Peroxynitrite Resulting from Phagocytosis by Flow Cytometry.
RAW264.7 macrophages were seeded on a non-treated 96-well plate (USA Scientific) in complete media (40,000 cells, 200 μL per well) 16 h prior to treatment. These cells adhere to treated plastic very strongly, and the use of non-treated plates was required for subsequent release and analysis of cells by flow cytometry. Fluorescent sensors were diluted from DMSO stock solutions into complete media (final concentration of probe=10 μM, 0.5% DMSO). Fluorescein and Compound 3 were added to Hank's Balanced Salt Solution (HBSS, Corning, pH 7.4). Labeled tentagel beads were added to this complete media or HBSS (200,000 beads/mL). The original media was carefully removed from all wells by aspiration and replaced with the treatment media containing beads and sensors (200 μL per well) in triplicate. After incubation of treated cells at 37° C. for 4 h, aqueous propidium iodide (PI, 20 μL, 30 μM, Thermo Fisher Scientific) was added to each well (final concentration of PI=3 μM). A p200 multichannel pipette was used to release the cells from the plate via sheer force. Cellular fluorescence was analyzed by flow cytometry. Viability was determined by gating based on staining of cells with compromised membranes with PI. Tentagel beads take up significant amounts of PI, making them brighter than cells at 690/50 nm. Additionally, labeling of tentagel beads with Pacific Blue makes them brighter than cells when excited at 405 nm, and additional excitation at this wavelength was used to assure that all beads were excluded from gating of live cells. Median values of fluorescence of living cells in the FITC-A channel (525/40 nm) were compared and plotted.

[6] = cited from earlier work

Question: Which “ratio of cytosolic (ER-associated) to nuclear fluorescence” value (from here on “ratio of cytosolic (ER-associated)”) (RAW 264.7 macrophages [1]) does the source give for `Cc1cc(N(C)c2cc3oc4cc(=O)c(F)cc-4c(-c4ccccc4C)c3cc2F)ccc1O` [Compound 2] here?
Answer: 3.7

Question: Which “quantum yield Φ” value [2] does the source give for `Cc1ccccc1-c1c2cc(F)c(=O)cc-2oc2cc(N(C)c3cc(C)c(O)c(C)c3)c(F)cc12` [Compound 3] here?
Answer: 0.0004

Question: What about the “approximate limit of detection: peroxynitrite giving a 2-fold increase in fluorescence intensity” value [3] of the same compound?
Answer: ~40 nM

Question: What about the “selectivity for peroxynitrite versus perchlorite, hydroxyl radical, superoxide, peroxides, nitric oxide” value [4] of the same compound?
Answer: highly selective for peroxynitrite

Question: And the cytotoxicity (cells in culture)?
Answer: negligible cytotoxicity

Question: What about the “cytosolic fluorescence after addition of antibody-opsonized beads” value (RAW 264.7 macrophages [1]; 10 μM sensor, tentagel beads/IgG, confocal microscopy) of the same compound?
Answer: dramatic increase in localized cytosolic fluorescence

Question: And the “ratio of cytosolic (ER-associated)” value (RAW 264.7 macrophages [1])?
Answer: 6.7

Question: And the “fluorescence enhancement on co-treatment with FeTMPyP” value (RAW 264.7 macrophages [1]; confocal microscopy, data not shown)?
Answer: substantially reduced

Question: What about the “accumulation in the ER by co-localization with ER tracker blue-white DPX” value (RAW 264.7 macrophages [1]; data not shown) of the same compound?
Answer: confirmed to accumulate in the ER

Question: What about the “conversion by SIN-1 to Compound 9, analysis by HPLC” value (HPLC) of the same compound?
Answer: cleanly convert

Question: And the “pseudo-first-order half-time t1/2 of reaction with SIN-1” value (buffer, pH 7.4)?
Answer: 49 s

Question: What about the “decrease of cellular fluorescence on co-treatment with peroxynitrite decomposition catalyst FeTMPyP” value (RAW 264.7 macrophages [5]; IgG-bound beads, FeTMPyP 50 μM) of the same compound?
Answer: over 50%

Question: And the “detection of peroxynitrite upon mild treatment of cells with antibody-opsonized tentagel beads” value (RAW 264.7 macrophages [5]; flow cytometry, FIG. 6B)?
Answer: could detect peroxynitrite

Question: And the “concentration in cells relative to Compound 5” value (RAW 264.7 macrophages [5]; flow cytometry, corrected for brightness, identical conditions (FIG. 8C))?
Answer: 4 fold

Question: What about the “change in cellular fluorescence upon addition of IgG-coated beads” value (RAW 264.7 macrophages [5]; sensor 10 μM, 4 h, Beads/IgG, flow cytometry) of the same compound?
Answer: 10 fold

Question: For `Cc1ccccc1-c1c2cc(F)c(=O)cc-2oc2cc(N(C)c3cc(C(C)(C)C)c(O)c(C(C)(C)C)c3)c(F)cc12` [Compound 4], which “cellular association (cellular fluorescence per sensor brightness)” value (RAW 264.7 macrophages [5]; flow cytometry) is on record?
Answer: lower cellular association than Compound 2

Question: Which “ratio of cytosolic (ER-associated)” value (RAW 264.7 macrophages [1]) does the source give for `COc1cc(N(C)c2cc3oc4cc(=O)c(F)cc-4c(-c4ccccc4C)c3cc2F)ccc1O` [Compound 5] here?
Answer: 2.6

Question: With `Cc1ccccc1-c1c2cc(F)c(=O)cc-2oc2cc(N(C)c3cc(Cl)c(O)c(Cl)c3)c(F)cc12` [Compound 8] as the compound, how does the “cellular association (cellular fluorescence per sensor brightness)” value (RAW 264.7 macrophages [5]; flow cytometry) read?
Answer: lowest cellular association

Question: Which results are given for `CNc1cc2oc3cc(=O)c(F)cc-3c(-c3ccccc3C)c2cc1F` [Compound 9]?
Answer: quantum yield Φ [2]: 0.72; accumulation in the ER by co-localization with ER tracker blue-white DPX (RAW 264.7 macrophages [1]; data not shown): confirmed to accumulate in the ER; time to extensive loss of cellular fluorescence after washing cells once with complete media (efflux) (RAW 264.7 macrophages [1]; data not shown): 10 to 20 min

Question: For `O=C1OC2(c3ccc(O)cc3Oc3cc(Oc4ccc(O)cc4)ccc32)c2ccccc21` (stereo not drawn) [HPF, hydroxyphenyl fluorescein, reference compound], which “response of cellular fluorescence to SIN-1” value (RAW 264.7 macrophages [5]) is on record?
Answer: responded to SIN-1 and could increase cellular fluorescence

Question: For `O=NOO` [peroxynitrous acid], which pKa [6] is on record?
Answer: 6.84

Question: For “fluorescein boronate [Fl-B, reference compound]”, which “response of cellular fluorescence to SIN-1” value (RAW 264.7 macrophages [5]) is on record?
Answer: responded to SIN-1 and could increase cellular fluorescence
